# Tests used:
# Format in all cases: in vivo
# [1] = tested on: large crabgrass (Digitaria sanguinalis, DIGSA); test: Pre-emerge test, greenhouse herbicide activity screening; conditions: phytotoxicity rating 0-100, 14 days after application
# In short: (§1)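 Visual ratings on a 0-100 scale (0 no damage, 100 all plants dead) were taken at 14 days after treatment. Rates of 15-1000 g ai/ha in acetone, 187 l/ha, were sprayed onto soil one day after planting (pre-emerge) or onto 2-3 leaf plants with 0.25% v/v surfactant (post-emerge).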
# [2] = tested on: green foxtail (Setaria viridis, SETVI); test: as above; conditions: phytotoxicity rating 0-100, 14 days after application
# In short: as §1
# [3] = tested on: johnsongrass (Sorghum halepense, SORHA); test: as above; conditions: phytotoxicity rating 0-100, 14 days after application
# In short: as §1
# [4] = tested on: ivyleaf morningglory (Ipomoea hederacea, IPOHE); test: as above; conditions: phytotoxicity rating 0-100, 14 days after application
# In short: as §1
# [5] = tested on: barnyardgrass (Echinochloa crus-galli, ECHCG); test: as above; conditions: phytotoxicity rating 0-100, 14 days after application
# In short: as §1
# [6] = tested on: lambsquarters (Chenopodium album, CHEAL); test: as above; conditions: phytotoxicity rating 0-100, 14 days after application
# In short: as §1
# [7] = tested on: sicklepod (Cassia obtusifolia, CASOB); test: as above; conditions: phytotoxicity rating 0-100, 14 days after application
# In short: as §1
# [8] = tested on: velvetleaf (Abutilon theophrasti, ABUTH); test: as above; conditions: phytotoxicity rating 0-100, 14 days after application
# In short: as §1
# [9] = tested on: redroot pigweed (Amaranthus retroflexus, AMARE); test: as above; conditions: phytotoxicity rating 0-100, 14 days after application
# In short: (§2)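 Compounds in acetone were track-sprayed at 15-1000 g ai/ha (187 l/ha) on sandy loam pots: pre-emerge one day after seeding, post-emerge at 2-3 leaf stage with 0.25% v/v non-ionic surfactant. Phytotoxicity was rated 14 days later on a 0 (no damage) to 100 (complete death) scale.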
# [10] = tested on: upland rice (Oryza sp., var. Tebonnet, RICE); test: Pre-emerge test, crop safety; conditions: crop damage rating 0-100, 14 days after application
# In short: as §2
# [11] = tested on: field corn (Zea mays L., var. Dekalb 535, CORN); test: Pre-emerge test, crop safety; conditions: crop damage rating 0-100, 14 days after application
# In short: as §2
# [12] = tested on: upland rice (Oryza sp., var. Tebonnet, RICE); test: Post-emerge test, crop safety; conditions: post-emerge, 14 days after application, rating scale 0-100
# In short: as §1
# [13] = tested on: field corn (Zea mays L., var. Dekalb 535, CORN); test: Post-emerge test, crop safety; conditions: post-emerge, 14 days after application, rating scale 0-100
# In short: as §1
# [14] = tested on: large crabgrass (Digitaria sanguinalis, DIGSA); test: Post-emerge test, greenhouse herbicide activity screening; conditions: post-emerge, 14 days after application, rating scale 0-100
# In short: (§3)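 Herbicidal damage is scored 0 (none) to 100 (complete plant death) two weeks after a simulated field spray. Rates span 15–1000 g ai/ha, delivered in acetone at 187 l/ha. For post-emergence treatments, plants have 2–3 leaves and the spray carries 0.25% v/v non-ionic surfactant.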
# [15] = tested on: redroot pigweed (Amaranthus retroflexus, AMARE); test: as above; conditions: post-emerge, 14 days after application
# In short: as §3
# [16] = tested on: green foxtail (Setaria viridis, SETVI); test: as above; conditions: post-emerge, 14 days after application, rating scale 0-100
# In short: as §3
# [17] = tested on: johnsongrass (Sorghum halepense, SORHA); test: as above; conditions: post-emerge, 14 days after application, rating scale 0-100
# In short: as §3
# [18] = tested on: ivyleaf morningglory (Ipomoea hederacea, IPOHE); test: as above; conditions: post-emerge, 14 days after application, rating scale 0-100
# In short: as §3
# [19] = tested on: barnyardgrass (Echinochloa crus-galli, ECHCG); test: as above; conditions: post-emerge, 14 days after application, rating scale 0-100
# In short: as §3
# [20] = tested on: lambsquarters (Chenopodium album, CHEAL); test: as above; conditions: post-emerge, 14 days after application, rating scale 0-100
# In short: as §3
# [21] = tested on: sicklepod (Cassia obtusifolia, CASOB); test: as above; conditions: post-emerge, 14 days after application, rating scale 0-100
# In short: as §3
# [22] = tested on: velvetleaf (Abutilon theophrasti, ABUTH); test: as above; conditions: post-emerge, 14 days after application, rating scale 0-100
# In short: as §3
compound,measurement,setting,value
COc1c(Cl)cc(F)c(-n2c(=O)cc(C(F)(F)F)n(C)c2=O)c1NC(=O)OCc1ccccc1[N+](=O)[O-] [4-34],Pre-emerge Herbicidal Activity DIGSA,[1]; 63 g ai/ha,90
same,Pre-emerge Herbicidal Activity DIGSA,[1]; 250 g ai/ha,95
same,Pre-emerge Herbicidal Activity SETVI,[2]; 63 g ai/ha,80
same,Pre-emerge Herbicidal Activity SETVI,[2]; 250 g ai/ha,100
same,Pre-emerge Herbicidal Activity SORHA,[3]; 63 g ai/ha,40
same,Pre-emerge Herbicidal Activity SORHA,[3]; 250 g ai/ha,80
same,Pre-emerge Herbicidal Activity IPOHE,[4]; 63 g ai/ha,30
same,Pre-emerge Herbicidal Activity IPOHE,[4]; 250 g ai/ha,80
same,Pre-emerge Herbicidal Activity ECHCG,[5]; 63 g ai/ha,50
same,Pre-emerge Herbicidal Activity ECHCG,[5]; 250 g ai/ha,90
same,Pre-emerge Herbicidal Activity CHEAL,[6]; 63 g ai/ha,100
same,Pre-emerge Herbicidal Activity CHEAL,[6]; 250 g ai/ha,100
same,Pre-emerge Herbicidal Activity CASOB,[7]; 63 g ai/ha,40
same,Pre-emerge Herbicidal Activity CASOB,[7]; 250 g ai/ha,95
same,Pre-emerge Herbicidal Activity ABUTH,[8]; 63 g ai/ha,100
same,Pre-emerge Herbicidal Activity ABUTH,[8]; 250 g ai/ha,100
same,Pre-emerge Herbicidal Activity AMARE,[9]; 63 g ai/ha,100
same,Pre-emerge Herbicidal Activity AMARE,[9]; 250 g ai/ha,100
same,Pre-emerge Herbicidal Activity RICE,[10]; 63 g ai/ha,50
same,Pre-emerge Herbicidal Activity RICE,[10]; 250 g ai/ha,95
same,Pre-emerge Herbicidal Activity CORN,[11]; 63 g ai/ha,10
same,Pre-emerge Herbicidal Activity CORN,[11]; 250 g ai/ha,90
same,phytotoxicity rating RICE (crop damage),[12]; 63 g ai/ha,40
same,phytotoxicity rating RICE (crop damage),[12]; 250 g ai/ha,80
same,phytotoxicity rating CORN (crop damage),[13]; 63 g ai/ha,25
same,phytotoxicity rating CORN (crop damage),[13]; 250 g ai/ha,50
same,phytotoxicity rating DIGSA,[14]; 63 g ai/ha,35
same,phytotoxicity rating DIGSA,[14]; 250 g ai/ha,60
same,phytotoxicity rating AMARE,"[15]; 63 g ai/ha, rating scale 0-100 (0 no damage, 100 complete death)",100
same,phytotoxicity rating AMARE,"[15]; 250 g ai/ha, rating scale 0-100",100
same,phytotoxicity rating SETVI,[16]; 63 g ai/ha,50
same,phytotoxicity rating SETVI,[16]; 250 g ai/ha,75
same,phytotoxicity rating SORHA,[17]; 63 g ai/ha,30
same,phytotoxicity rating SORHA,[17]; 250 g ai/ha,30
same,phytotoxicity rating IPOHE,[18]; 63 g ai/ha,100
same,phytotoxicity rating IPOHE,[18]; 250 g ai/ha,90
same,phytotoxicity rating ECHCG,[19]; 63 g ai/ha,20
same,phytotoxicity rating ECHCG,[19]; 250 g ai/ha,50
same,phytotoxicity rating CHEAL,[20]; 63 g ai/ha,100
same,phytotoxicity rating CHEAL,[20]; 250 g ai/ha,100
same,phytotoxicity rating CASOB,[21]; 63 g ai/ha,90
same,phytotoxicity rating CASOB,[21]; 250 g ai/ha,100
same,phytotoxicity rating ABUTH,[22]; 63 g ai/ha,100
same,phytotoxicity rating ABUTH,[22]; 250 g ai/ha,100
